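Briefly, cells in 96-well plates were exposed to five compound concentrations for 48 h, and endpoints were estimated by linear interpolation. Abbreviation: GI50, concentration required for 50% inhibition of growth. TGI: concentration producing complete growth inhibition.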
Legend:
Assay in all cases: growth of human tumour cells (NCI), 48 h
[1] = tested on: MDA-MB-468 breast
[2] = tested on: CCRF-CEM leukemia
[3] = tested on: UO-31 renal
[4] = tested on: CAKI-1 renal
[5] = tested on: SK-MEL-2 melanoma
[6] = tested on: SF-268 CNS
[7] = tested on: HCT-15 colon
[8] = tested on: LOX IMVI melanoma
[9] = tested on: SNB-75 CNS
[10] = tested on: OVCAR-4 ovarian
[11] = tested on: EKVX NSCLC
[12] = tested on: HS 578T breast
[13] = tested on: K-562 leukemia
[14] = tested on: SK-OV-3 ovarian
[15] = tested on: COLO 205 colon
[16] = tested on: UACC-257 melanoma
[17] = tested on: HCT-116 colon
[18] = tested on: MCF7 breast
[19] = tested on: BT-549 breast
[20] = tested on: RPMI-8226 leukemia
[21] = tested on: SK-MEL-28 melanoma
[22] = tested on: MDA-MB-231 breast
[23] = tested on: UACC-62 melanoma
[24] = tested on: IGROV1 ovarian
[25] = tested on: OVCAR-8 ovarian
[26] = tested on: KM12 colon
[27] = tested on: MDA-MB-435
[28] = tested on: NCI/ADR-RES ovarian
[29] = tested on: NCI-H522 lung
[30] = tested on: SF-539 CNS
[31] = tested on: NCI-H460 lung
[32] = tested on: T-47D breast
[33] = tested on: A498 renal
[34] = tested on: M14 melanoma
[35] = tested on: OVCAR-5 ovarian
[36] = tested on: NCI-H226 lung
[37] = tested on: HOP-92 NSCLC
[38] = tested on: RXF 393 renal
[39] = tested on: HT29 colon
[40] = tested on: SK-MEL-5 melanoma
[41] = tested on: SNB-19 CNS
[42] = tested on: HOP-62 NSCLC
[43] = tested on: NCI-H23 lung
[44] = tested on: DU-145 prostate
[45] = tested on: HCC-2998 colon
[46] = tested on: OVCAR-3 ovarian
[47] = tested on: SN12C renal
[48] = tested on: ACHN renal
[49] = tested on: SF-295 CNS
[50] = tested on: MALME-3M melanoma
[51] = tested on: TK-10 renal
[52] = tested on: U251 CNS
[53] = tested on: SW-620 colon
[54] = tested on: PC-3 prostate
[55] = tested on: SR leukemia
[56] = tested on: MOLT-4 leukemia
[57] = tested on: HL-60(TB) leukemia
[58] = tested on: 786-0 renal
[59] = tested on: A549 NSCLC

SMILES: NC(=O)c1ccc(C2C3=C(CCCC3=O)OC3=C2C(=O)c2ccccc2C3=O)cc1 (centres undefined)
- GI50 [1]: 0.201 µM
- TGI [1]: 0.649 µM

SMILES: COc1cc2nc(-c3ccc(C(F)(F)F)cc3)cc(OCCCN3CCCCC3)c2cc1OC
- GI50 [1]: 1.03 µM
- TGI [1]: 3.29 µM

SMILES: CN(C)C(=O)O[C@@H]1CN[C@@H](C#Cc2cc3ncnc(Nc4ccc(OCc5cccc(F)c5)c(Cl)c4)c3s2)C1
- GI50 [1]: 1.74 µM
- TGI [1]: 12.7 µM

SMILES: CCCCCCN(CCCCCC)CC(O)c1ccc2c3c(cccc13)CC2 (centres undefined)
- GI50 [1]: 3.43 µM
- TGI [1]: 14.4 µM

SMILES: N#C[C@@H]1C(n2ccc(N)nc2=O)O[C@H](CO)[C@H]1O (some centres undefined)
- GI50 [1]: > 73.1 µM
- TGI [1]: > 100 µM

SMILES: CNC(=O)c1cc(-n2ccc3cc(NC(=O)Nc4ccc(N5CCOCC5)c(C(F)(F)F)c4)ccc32)ccn1
- GI50 [1]: 12.8 µM
- TGI [1]: > 33.3 µM

SMILES: Cc1ccc(NC(=O)Cn2c(Br)nc3c2c(=O)n(C)c(=O)n3C)cc1
- GI50 [1]: 10.1 µM
- TGI [1]: 23.2 µM

SMILES: CCC(C)[C@H]1OC(=O)[C@H](C(C)C)N(C)C(=O)[C@@H](C(C)C)OC(=O)[C@H](C(C)C)N(C)C(=O)[C@@H](C(C)CC)OC(=O)[C@H](C(C)C)N(C)C1=O (some centres undefined)
- GI50 [1]: 0.44 µM
- TGI [1]: 1.35 µM

SMILES: O=C(NO)c1ccc(CNC(=O)[C@H]2Cc3c([nH]c4ccccc34)[C@H](c3ccc(Cl)cc3)N2)cc1
- GI50 [2]: 0.617 µM
- TGI [2]: > 22 µM
- GI50 [3]: 2.64 µM
- TGI [3]: 6.27 µM
- GI50 [4]: 2.33 µM
- TGI [4]: 9.73 µM
- GI50 [5]: 2.77 µM
- TGI [5]: 7.03 µM
- GI50 [1]: 0.38 µM
- TGI [1]: 1.14 µM
- GI50 [6]: 2.92 µM
- TGI [6]: 12.5 µM
- GI50 [7]: 4.26 µM
- TGI [7]: > 22 µM
- GI50 [8]: 1.09 µM
- TGI [8]: 4.76 µM
- GI50 [9]: 2.26 µM
- TGI [9]: 7.58 µM
- GI50 [10]: 3.73 µM
- TGI [10]: > 22 µM
- GI50 [11]: 2.65 µM
- TGI [11]: 16.4 µM
- GI50 [12]: 1.01 µM
- TGI [12]: > 22 µM
- GI50 [13]: 0.72 µM
- TGI [13]: > 22 µM
- GI50 [14]: 2.01 µM
- TGI [14]: 5.9 µM
- GI50 [15]: 0.719 µM
- TGI [15]: 3.38 µM
- GI50 [16]: 1.23 µM
- TGI [16]: > 22 µM
- GI50 [17]: 0.609 µM
- TGI [17]: 3.72 µM
- GI50 [18]: 0.874 µM
- TGI [18]: 8.36 µM
- GI50 [19]: 4.93 µM
- TGI [19]: 11 µM
- GI50 [20]: 0.564 µM
- TGI [20]: > 22 µM
- GI50 [21]: 0.878 µM
- TGI [21]: 3.62 µM
- GI50 [22]: 0.887 µM
- TGI [22]: 4 µM
- GI50 [23]: 0.538 µM
- TGI [23]: 2.94 µM
- GI50 [24]: 1.2 µM
- TGI [24]: 4.27 µM
- GI50 [25]: 0.942 µM
- TGI [25]: > 22 µM
- GI50 [26]: 2.36 µM
- TGI [26]: 6.71 µM
- GI50 [27]: 0.959 µM
- TGI [27]: 4.36 µM
- GI50 [28]: 3.35 µM
- TGI [28]: > 22 µM
- GI50 [29]: 0.584 µM
- TGI [29]: 3.16 µM
- GI50 [30]: 1.14 µM
- TGI [30]: 4.24 µM
- GI50 [31]: 1.02 µM
- TGI [31]: > 22 µM
- GI50 [32]: 0.6 µM
- TGI [32]: 5.44 µM
- GI50 [33]: 2.06 µM
- TGI [33]: 9.06 µM
- GI50 [34]: 2.2 µM
- TGI [34]: 8.42 µM
- GI50 [35]: 0.456 µM
- TGI [35]: 3.01 µM
- GI50 [36]: 2.27 µM
- TGI [36]: 11.6 µM
- GI50 [37]: 0.93 µM
- TGI [37]: 4.48 µM
- GI50 [38]: 0.455 µM
- TGI [38]: 2.25 µM
- GI50 [39]: 0.838 µM
- TGI [39]: > 22 µM
- GI50 [40]: 0.721 µM
- TGI [40]: 2.71 µM
- GI50 [41]: 2.26 µM
- TGI [41]: 5.3 µM
- GI50 [42]: 1.27 µM
- TGI [42]: 7.42 µM
- GI50 [43]: 1.33 µM
- TGI [43]: 4.26 µM
- GI50 [44]: 1.08 µM
- TGI [44]: > 22 µM
- GI50 [45]: 0.605 µM
- TGI [45]: 3.08 µM
- GI50 [46]: 1.23 µM
- TGI [46]: 9.15 µM
- GI50 [47]: 2.41 µM
- TGI [47]: 9.15 µM
- GI50 [48]: 3.05 µM
- TGI [48]: 9.57 µM
- GI50 [49]: 1.81 µM
- TGI [49]: 4.75 µM
- GI50 [50]: 0.41 µM
- TGI [50]: 2.31 µM
- GI50 [51]: 1.51 µM
- TGI [51]: 14.6 µM
- GI50 [52]: 1.21 µM
- TGI [52]: 5.8 µM
- GI50 [53]: 0.687 µM
- TGI [53]: 2.37 µM
- GI50 [54]: 1.76 µM
- TGI [54]: 9.17 µM
- GI50 [55]: 1.15 µM
- TGI [55]: > 22 µM
- GI50 [56]: 0.563 µM
- TGI [56]: > 22 µM
- GI50 [57]: 0.706 µM
- TGI [57]: 3.13 µM
- GI50 [58]: 3.71 µM
- TGI [58]: 14.2 µM
- GI50 [59]: 3.97 µM
- TGI [59]: > 22 µM
